The results in this text go back to patent US20170360779A1, “PHARMACEUTICAL COMPOSITION COMPRISING BICYCLIC NITROGEN-CONTAINING AROMATIC HETEROCYCLIC AMIDE COMPOUND AS ACTIVE INGREDIENT” (Astellas Pharma Inc., priority 2014, published 2017).

In assay [1] the test system is HARA cells. Kind of assay: Anti-tumor test (2) on mice bearing HARA tumors. It counts as in vivo, BALB/c nude mice. The following applies: Test Example 4, HARA, final measuring day. The procedure: (§1) A427 cells and NCI-H1395 cells which are LKB1 mutation-positive non-small cell lung cancer cell lines, and HARA cells and NCI-H1993 cells which are LKB1 wild-type non-small cell lung cancer cell lines, suspended in a mixed solution of PBS and Matrigel (registered trademark) in 1:1, were injected and implanted, 3×10^6 cells each (for A427 cells, 5×10^6), to 4- to 5-week-old male BALB/c nude mice (Charles River Laboratories Japan, Inc.) under the skin on the back. Dividing into groups was performed when the tumor volume reached 100 to 300 mm^3, and administering of the test compounds was started. The test was performed on each of the 5 mice in the solvent group and the compound administered group. By oral administration, 6% cyclodextrin aqueous solution for the solvent group, and 6% cyclodextrin aqueous solution in which the test compound was mixed by the dosage shown in Table 4 for the compound administered group were administered. The administration was performed once a day for 14 days (HARA), 21 days (A427, NCI-H1993), or 35 days (NCI-H1395), and the body weight and the tumor diameter were measured twice a week. For calculation of the tumor volume, the formula below was used.
(§2) [Tumor volume (mm^3)]−[major axis of tumor (mm)]×[minor axis of tumor (mm)]^2×0.5
(§3) The inhibition rate of tumor growth and the rate of tumor regression were calculated from the average value of the tumor volume according to the formula below.
(§4) Inhibition rate of tumor growth (%)=(1−average of tumor volume growth in each group/average of tumor volume growth in control group)×100
(§5) Rate of tumor regression (%)=(1−average tumor volume in each group on measuring day/average tumor volume in each group when dividing groups)×100

The subject of assay [2] is A427 cells. As to the kind of experiment: Anti-tumor test (2) on mice bearing A427 tumors. In kind it is in vivo, BALB/c nude mice. Conditions: final measuring day. As to the method: as §1, §2, §3, §4, §5
Assay [3] has as its system NCI-H1993 cells. Kind of assay: Anti-tumor test (2) on mice bearing NCI-H1993 tumors. It counts as in vivo, BALB/c nude mice. Conditions: final measuring day. As to the method: as §1, §2, §3, §4, §5
Another assay deals with AMPK. Kind of assay: Evaluation on effect of activating AMPK (phosphorylation of ACC Ser79, Cell ELISA in MDA-MB-453 cells). It counts as cell-based. Conditions: Homo sapiens, 2 hours, concentration as freebase. The procedure: 36 μl each of MDA-MB-453 cells was seeded in Leibovitz's L-15 medium including 10% fetal bovine serum (Life Technologies Corporation) in a 384 well plate so that the cells became 15,000 cells per well, and the cells were cultured overnight at 37° C. in the absence of CO2. […] After that, the cells were cultured at 37° C. for 2 hours in the absence of CO2. 20 μl of a 40% glyoxal solution (Nacalai Tesque, INC.) was added to each well, and then the cells were left to stand at room temperature for 30 minutes to be fixed. Thereafter, the supernatant was removed by centrifuging the plate (at 800 rpm for 8 seconds by using the Ecospin of C.A.N. Hereinafter the centrifugation was performed under the same conditions unless otherwise specified), and 20 μl of 0.1% Triton X-100-containing Phosphate-Buffered Saline (PBS) was added to each well, and then left to stand at room temperature for 10 minutes. The 0.1% Triton X-100-containing PBS was removed by centrifugation, and 20 μl of a blocking solution (Odyssey Blocking Buffer manufactured by LI-COR Biosciences, Inc.) was added to each well, and then left to stand at room temperature for 1 hour. […] On the following day, the reaction solution was removed by centrifuging the plate, and 25 μl of 0.05% Tween-20-containing Tris-Buffered Saline (TBS) (manufactured by Thermo Scientific; used in 1× by diluting 20×TBS Tween-20 with ion-exchange water) was added to each well, and then each well was washed by centrifugal removal. The washing was performed for a total of 3 times. […] The reaction solution was removed by centrifuging the plate, and then each well was washed for 3 times with 0.05% Tween-20-containing TBS in the same manner as after the primary antibody reaction. After the washing solution was removed, the plate was air-dried at room temperature for 3 hours or longer and signals were measured by Aerius (manufactured by LI-COR Biosciences, Inc.).

The test system of assay [4] is NCI-H1395 cells. As to the kind of experiment: Anti-tumor test (2) on mice bearing NCI-H1395 tumors. It counts as in vivo, BALB/c nude mice. Conditions: final measuring day. The procedure: as §1, §2, §3, §4, §5
Assay [5] has as its system A427 cells. As to the kind of experiment: Anti-tumor test (1) on mice bearing A427 tumors. The following applies: Test Example 3, A427 (LKB1 mutation-positive), 8 mg/kg oral once a day for 21 days, final measuring day. It counts as in vivo, BALB/c nude mice. As to the method: (§6) A427 cells and NCI-H1395 cells which are LKB1 mutation-positive non-small cell lung cancer cell lines, and HARA cells and NCI-H1993 cells which are LKB1 wild-type non-small cell lung cancer cell lines, suspended in a mixed solution of PBS and Matrigel (registered trademark) in 1:1, were injected and implanted, 3×10^6 cells each, to 4- to 5-week-old male BALB/c nude mice (Charles River Laboratories Japan, Inc.) under the skin on the back. After that, administering of the test compounds was started after confirming that the average tumor volume exceeded 100 mm^3. The test was performed on each of the 4 to 5 mice in a solvent group and a compound administered group. By oral administration, 6% cyclodextrin aqueous solution for the solvent group, and 6% cyclodextrin aqueous solution in which the test compound was mixed by 8 mg/kg for the compound administered group were administered. The administration was performed once a day for 14 days (NCI-H1993, HARA), 21 days (A427), or 35 days (NCI-H1395), and the body weight and the tumor diameter were measured twice a week. For calculation of the tumor volume, the formula below was used.
(§7) [Tumor volume (mm^3)]=[major axis of tumor (mm)]×[minor axis of tumor (mm)]^2×0.5
(§8) The inhibition rate of tumor growth and the rate of tumor regression were calculated from the average value of the tumor volume according to the formula below. […]

Assay [6] concerns HARA cells. As to the kind of experiment: Anti-tumor test (1) on mice bearing HARA tumors. In kind it is in vivo, BALB/c nude mice. The following applies: Test Example 3, HARA (LKB1 wild-type), 8 mg/kg oral once a day for 14 days, final measuring day. As to the method: as §6, §7, §8
Assay [7] has as its system NCI-H1993 cells. Kind of assay: Anti-tumor test (1) on mice bearing NCI-H1993 tumors. In kind it is in vivo, BALB/c nude mice. The following applies: Test Example 3, NCI-H1993 (LKB1 wild-type), 8 mg/kg oral once a day for 14 days, final measuring day. The procedure:
as §6, §7, §8

Assay [8] deals with NCI-H1395 cells. Kind of assay: Anti-tumor test (1) on mice bearing NCI-H1395 tumors. It counts as in vivo, BALB/c nude mice. Conditions: Test Example 3, NCI-H1395 (LKB1 mutation-positive), 8 mg/kg oral once a day for 35 days, final measuring day. The procedure: as §6, §7, §8
Setting [9] is: 8 mg/kg oral once a day for 14 days.
Setting [10] is: Test Example 4, A427, 8 mg/kg oral once a day for 21 days.
Setting [11] is: Test Example 4, NCI-H1993, 8 mg/kg oral once a day for 21 days.
[12] abbreviates: Test Example 4, NCI-H1395, 8 mg/kg oral once a day for 35 days.
The mark [13] stands for this setting: 1 mg/kg oral once a day for 14 days.
Where [14] appears, read: Test Example 4, A427, 1 mg/kg oral once a day for 21 days.
Where [15] appears, read: Test Example 4, NCI-H1993, 1 mg/kg oral once a day for 21 days.
[16] abbreviates: Test Example 4, NCI-H1395, 1 mg/kg oral once a day for 35 days.

Consider `COc1cnc(CN2CCC(c3ccc4[nH]c(C(=O)N5CCN(Cc6ccc(C(F)(F)F)cc6)CC5)nc4c3)CC2)cn1` [Compound B1, (5-{1-[(5-methoxypyrazin-2-yl)methyl]piperidin-4-yl}-1H-benzimidazol-2-yl) {4-[4-(trifluoromethyl)benzyl]piperazin-1-yl}methanone], for which the “Inhibition rate HARA” value in the assay with HARA cells [1] (setting [9]) is given as 14%. Also, the “Inhibition rate A427” value with A427 cells [2] (setting [10]) was determined as 99% inhibition. Besides, the “Inhibition rate NCI-H1993” value with NCI-H1993 cells [3] (setting [11]) is 62%. For the same compound, the EC50 in the assay on AMPK was found to be 8.3 nM. Besides, in the assay with NCI-H1395 cells [4] (setting [12]), the “Inhibition rate NCI-H1395” value was found to be 74%.
As to `COc1cnc(CN2CCC(c3ccc4c(c3)cc(C(=O)N3CCN(Cc5ccc(C#N)cc5)CC3)n4C)CC2)cn1` [Compound D1, 4-({4-[(5-{1-[(5-methoxypyrazin-2-yl)methyl]piperidin-4-yl}-1-methyl-1H-indol-2-yl)carbonyl]piperazin-1-yl}methyl)benzonitrile], the “Inhibition rate HARA” value with HARA cells [1] (setting [13]) stood at 31%. Also, in the assay with A427 cells [2] (setting [14]), the “Inhibition rate A427” value is 96% inhibition. For the same compound, the “Inhibition rate NCI-H1993” value in the assay on NCI-H1993 cells [3] (setting [15]) was 42%. In addition, a half-maximal effect in the assay with AMPK (EC50) was put at 3.3 nM. The “Inhibition rate NCI-H1395” value in the assay on NCI-H1395 cells [4] (setting [16]) is 70%.
Regarding `COc1ccc(CN2CCC(c3ccc4[nH]c(C(=O)N5CCN(Cc6ccc(C(F)(F)F)cc6)CC5)nc4c3)CC2)cn1` [Compound A1, (5-{1-[(6-methoxypyridin-3-yl)methyl]piperidin-4-yl}-1H-benzimidazol-2-yl){4-[4-(trifluoromethyl)benzyl]piperazin-1-yl}methanone], in the assay on HARA cells [1] (setting [9]), the “Inhibition rate HARA” value is recorded as 1.2%. The “Rate of tumor regression” value in the assay with A427 cells [5] was 41% regression; in the assay on NCI-H1395 cells [8], 16% regression. Besides, in the assay with A427 cells [2] (setting [10]), the “Inhibition rate A427” value was 84% inhibition. Moreover, the “Inhibition rate NCI-H1993” value in the assay with NCI-H1993 cells [3] (setting [11]) is given as 47%. In addition, the “Inhibition rate of tumor growth” value in the assay with HARA cells [6] is given as 32% inhibition; in the assay with NCI-H1993 cells [7] it was 62% inhibition. Further, in the assay with NCI-H1395 cells [4] (setting [12]), the “Inhibition rate NCI-H1395” value was 61%.
In the case of `CCOc1cnc(CN2CCC(c3ccc4cc(C(=O)N5CCN(Cc6ccc(C#N)cc6)CC5)n(C)c4c3)CC2)cn1` [Compound C1, 4-({4-[(6-{1-[(5-ethoxypyrazin-2-yl)methyl]piperidin-4-yl}-1-methyl-1H-indol-2-yl)carbonyl]piperazin-1-yl}methyl)benzonitrile], the “Inhibition rate HARA” value in the assay with HARA cells [1] (setting [13]) was 29%. Also, the “Regression rate A427” value with A427 cells [2] (setting [14]) is listed as 69% regression. In addition, in the assay with NCI-H1993 cells [3] (setting [15]), the “Inhibition rate NCI-H1993” value turned out to be 50%. The same compound came in with a 50% effective concentration (EC50) with AMPK of 1.8 nM. For the same compound, the “Inhibition rate NCI-H1395” value in the assay with NCI-H1395 cells [4] (setting [16]) is 75%.
